{"source": "patent US20220193067A1", "about": "“QUINOLINE COMPOUND OR PHARMACEUTICALLY ACCEPTABLE SALT THEREOF FOR TREATING EWING'S SARCOMA” (CHIA TAI TIANQING PHARMACEUTICAL GROUP CO., LTD., priority 2019, published 2022)", "key": {"[1]": {"system": "Human Ewing's sarcoma A673 cells", "assay": "Apoptosis of Ewing's sarcoma cells, Annexin-V-FITC/PI flow cytometry", "type": "cell-based", "settings": "different concentrations (0-30 μg/mL) added to vincristine+doxorubicin+cyclophosphamide; 24 h", "procedure": "Human Ewing's sarcoma A673 cells in logarithmic growth phase were added at 10^5 cells/well to a DMEM complete culture medium containing 2 μg/mL vincristine, 75 μg/mL doxorubicin and 500 μg/mL cyclophosphamide, and to a DMEM complete culture medium containing the dihydrochloride of the compound of formula I (at concentrations of 0, 0.005, 0.1, 0.05, 0.1, 0.5, 1.5, 4, 12 and 30 μg/mL), 2 μg/mL vincristine, 75 μg/mL doxorubicin and 500 μg/mL cyclophosphamide. The resulting mixtures were incubated for 24 h, and then the cells were collected, centrifuged at 1000 r/min for 3-5 min, and washed with PBS. Then the apoptosis of the cells was detected using an Annexin-V-FITC/PI apoptosis detection kit. The cells were resuspended in 100 μL of 1×Binding buffer solution, and 5 μL of Annexin-V-FITC and 2.5 μL of PI dye were added. The mixture was shaken and mixed well in the absence of light, reacted for 15 min at room temperature, added with 300 μL of 1×Binding buffer solution, mixed well, and then subjected to detection by a flow cytometer. The test was repeated 3 times."}, "Ewing's sarcoma patients": {"system": "Ewing's sarcoma patients", "assay": "Clinical trial of capsule combined with VAC-2 regimen in Ewing's sarcoma patients", "type": "in vivo, human", "settings": "12 mg capsule orally once daily, 2 weeks on/1 week off", "procedure": "A clinical trial was carried out in Ewing's sarcoma patients with measurable lesions (according to RECIST 1.1) for the combination of the dihydrochloride capsule of the compound of formula I and a second therapeutic agent (VAC-2 regimen). Patients in the patient group comprised patients who had previously received chemotherapy and those who had not. The patients were orally administered with 12 mg of the dihydrochloride capsule of the compound of formula I once daily (2 weeks of treatment and 1 week of interruption constitute one treatment cycle), and meanwhile the patients were treated with the VAC-2 regimen: intravenous infusion of 2 mg of vincristine on day 1, intravenous infusion of 75 mg/m^2 of doxorubicin on day 1, and intravenous infusion of 1200 mg/m^2 of cyclophosphamide on day 1 (28 days constitute one cycle). The evaluation endpoints included: efficacy endpoints, e.g., progression-free survival (PFS), objective response rate (ORR), duration of response (DOR), stable disease (SD) rate, clinical benefit rate (CBR), overall survival (OS), etc.; safety endpoints, e.g., incidence and severity of adverse events; and quality of life."}, "[2]": {"system": "Human Ewing's sarcoma cell line A673", "assay": "Proliferation of Ewing's sarcoma cells (MTT method), combination with VAC-2 regimen", "type": "cell-based", "settings": "combined with 2 μg/mL vincristine, 75 μg/mL doxorubicin and 500 μg/mL cyclophosphamide", "procedure": "The test drugs were dissolved in dimethyl sulfoxide to prepare a 100 mmol/L mother solution, which was stored at −20° C. for later use. When in use, the mother solution was prepared with a DMEM serum culture medium to reach a required concentration; vincristine, doxorubicin and cyclophosphamide were mixed (VAC-2 regimen), and the dihydrochloride diluent of the compound of formula I was mixed with vincristine, doxorubicin and cyclophosphamide. […]\nThe ICso value can be measured by a conventional method in the art (e.g., MTT method), or can be measured by the following method (MTT method):\nCells in logarithmic growth phase were inoculated in a 96-well culture plate (180 μL/well, 10^5 cells/well); after 2 h of incubation at 37° C./5% CO2, the cells were added with the dihydrochloride of the compound of formula I (solutions at gradient concentrations of 0, 0.005, 0.1, 0.05, 0.1, 0.5, 1.5, 4, 12 and 30 μg/mL), 2 μg/mL vincristine, 75 μg/mL doxorubicin and 500 μg/mL cyclophosphamide, and the resulting mixtures were incubated. […] The next day, OD values were measured at 570 nm and 630 nm wavelengths using a microplate reader (SPECTRA max 190) (calculated by subtracting OD values measured at 630 nm (the control wavelength) from all OD values measured at 570 nm), and the cell growth inhibition rate was calculated according to the following equation: […]"}, "[3]": {"system": "human Ewing's sarcoma cells A673", "assay": "Effect on growth of Ewing's sarcoma, A673 subcutaneous xenograft in nude mice", "type": "in vivo, BALB/cA-nude mice", "settings": "6.25 mg/kg orally daily for 14 consecutive days; A673 subcutaneous tumors in nude mice", "procedure": "The dihydrochloride salt of the compound of formula I was dissolved in water to a concentration of 25 mg/mL and then further diluted with distilled water to a concentration of […].\nBALB/cA-nude mice, feeding environment: SPF grade. Nude mice were inoculated subcutaneously with human Ewing's sarcoma cells A673, and randomly grouped (d0) after tumors grew to 100-250 mm^3.\nThe dihydrochloride of the compound of formula I (a dosage of 6.25 mg/kg) was orally administered daily to the animals in a volume of 10 mL/kg for 14 consecutive days. The tumor volume was measured 2-3 times per week, the mice were weighed, and the data was recorded.\nThe equation for calculating tumor volume (V) is as follows: V=½×a×b^2, where a and b represent length and width, respectively.\nT/C (%)=(T-T0)/(C-C0)×100%, where T and C represent the tumor volumes of the administration group mice and the control group (i.e., solvent group) mice, respectively, at the end of the experiment; T0 and C0 represent the tumor volumes of administration group mice and the control group (i.e., solvent group) mice, respectively, at the time of grouping and administration (d0).\nThe equation for calculating relative tumor volume (RTV) after administration is as follows: RTV=TV/TV0 (TV represents tumor volume at each measurement after administration, and TV0 represents tumor volume at the time of grouping and administration (d0))."}}, "note": "Structures can show the parent of a compound that is named as a salt."}
{"smiles": "COc1cc2c(Oc3ccc4[nH]c(C)cc4c3F)ccnc2cc1OCC1(N)CC1", "note": "[1-1-[[[4-(4-fluoro-2-methyl-1H-indol-5-yl)oxy-6-methoxyquinolin-7-yl]oxy]methyl]cyclopropylamine dihydrochloride]", "values": [{"measurement": "apoptosis caused by the VAC-2 regimen", "setting": "[1]", "result": "remarkably enhance apoptosis"}, {"measurement": "overall survival", "setting": "Ewing's sarcoma patients", "result": "can prolong overall survival"}, {"measurement": "treatment of Ewing's sarcoma (efficacy)", "setting": "Ewing's sarcoma patients", "result": "effective for treatment of Ewing's sarcoma"}, {"measurement": "inhibition effect on proliferation of A673 cells", "setting": "[2]", "result": "definite inhibition effect"}, {"measurement": "growth of Ewing's sarcoma", "setting": "[3]", "result": "significantly inhibit the growth of Ewing's sarcoma"}]}
